According to patent US9220706B2, “Inhibition of leukemic stem cells by PP2A activating agents” (Ohio State Innovation Foundation, priority 2012, dated 2015):

What was measured:
[1] = test system: CML cells (CFSE^max/CD34^+, CD34^+/CD38^−, CD34^+); experiment: Annexin-V/7-AAD apoptosis staining; assay type: cell-based, human
Experimental: (§1) CFSE-mediated tracking of cell division. Carboxyfluorescein diacetate succinimidyl diester (CFSE)-stained cells (CellTrace CFSE Proliferation Kit: Invitrogen) were cultured in the presence of the indicated drugs (dosed at time zero and at day three), and the cells were harvested after 3 or 6 days in culture, and stained with anti-CD34 PE, Annexin-V V450, and the viability stain 7-AAD (BD Bioscience) to determine the number of viable quiescent cells (CFSEmax/CD34^+/7-AAD− cells) and the percentage of quiescent and apoptosis-committed cells (CFSEmax/CD34+/Annexin V+/7-AAD±). Cells were sorted into dividing and quiescent populations for Western blot analysis. For assessment of mouse quiescent leukemic HSCs, Lin- cells from 8 week-induced SCLtTA/BCR-ABL1 mice were CFSE-stained and used as described above. Quiescent cells (CFSE^max/CD34^+) were reported as a fraction of the initial number of CD34^+ cells.

PP2A = biological target: T1, PP2A (Homo sapiens, UniProt P67775); experiment: PP2A phosphatase assay; assay type: cell-based; conditions: CD34+/CD38− CML cells; FTY720 at concentration non-toxic for normal CD34+ progenitors
T1 construct: PP2Ac assays from whole cell lysates; endogenous in cells; host or cells: CD34+/CD38- and CD34+/CD38+ primary CML and normal bone-marrow cells; immunoprecipitated with Millipore PP2Ac antibody
T1 sequence (P67775 whole entry): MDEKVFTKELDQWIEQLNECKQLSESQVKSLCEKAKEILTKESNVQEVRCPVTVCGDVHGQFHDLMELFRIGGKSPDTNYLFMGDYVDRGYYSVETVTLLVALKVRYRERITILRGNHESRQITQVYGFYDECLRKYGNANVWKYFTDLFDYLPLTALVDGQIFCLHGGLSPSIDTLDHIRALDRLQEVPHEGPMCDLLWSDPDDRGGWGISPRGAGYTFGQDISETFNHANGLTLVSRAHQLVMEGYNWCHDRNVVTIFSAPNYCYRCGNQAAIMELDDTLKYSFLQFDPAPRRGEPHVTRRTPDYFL
Experimental: PP2A phosphatase assay. PP2Ac assays from whole cell lysates were carried out using the PP2Ac immunoprecipitation phosphatase assay kit (Millipore). Briefly, protein lysates (50 μg) in 100 μl of 20 mM Hepes. pH 7.0, 100 mM NaCl, 5 μg of PP2Ac antibody (Millipore), and 25 μl of Protein A-agarose were added to 400 μl of 50 mM Tris, pH 7.0, 100 mM CaCl2, and IPs were carried out at 4° C. for 2 h. IPs were used in the phosphatase reaction according to the manufacturer's protocol.

CD34+/CD38− CML cells = experiment: CFC/replating assay, CML cells; assay type: cell-based, human
Experimental: (§2) Long term culture-initiating cell (LTC-IC) and Colony-forming cell (CFC)/replating assays. 2×10^6 mononuclear CML cells were cultured with a 1:1 mixture of irradiated (80 Gy) IL-3/G-CSF-producing M2-10B4 and IL-3/KL-producing SI/SI murine fibroblasts in MyeloCult H5100 (StemCell Technologies) supplemented with hydrocortisone. Drugs were present during the first week of culture. Medium was replaced after 7 days, followed by weekly half-medium changes. After 6 weeks, adherent and floating cells were harvested and 5×10^4 cells plated into MethoCult H4435. LTC-IC-derived colonies were scored after 14 days. For CFC/replating, individual 14-day colonies from 10^3-10^5 CD34+/CD38− CML or 0.2×10^3-10^3 leukemic LSK cells plated in 0.9% H4435 or M3234 MethoCult, respectively, containing KL, G-CSF, GM-CSF, IL-3, IL-6, and Epo were replated and scored 2 weeks later.

[2] = test system: Lin^− SCLtTA-BCR-ABL1 cells; experiment: CFSE-mediated tracking of quiescent cells, mouse leukemic; assay type: cell-based; conditions: 2.5 μM FTY720
Experimental: as §1

[3] = test system: CFSE^max/CD34^+ CML cells; experiment: CFSE-mediated tracking of quiescent cells, CML; assay type: cell-based, human; conditions: CFSE-labeled CD34^+ CML cells; FTY720 at 2.5 μM
Experimental: as §1

[4] = test system: LSK SCLtTA/BCR-ABL1 cells; experiment: CFC/replating assay, leukemic LSK cells; assay type: cell-based, mouse
Experimental: as §2

[5] = test system: UCB CD34^+ cells in NSG mice; conditions: mouse, in vivo
Source text: Engraftment of Human Normal and CML Cells in Immnunodeficient NSG Mice and Effect of FTY720 on Leukemic and Normal Hematopoietic Stem/Progenitor Cells. CD34+ cells were isolated from BM of CML patients (n=3) or from umbilical cord blood specimens (UCB; n=3). Note that CML samples were from patients in blastic transformation with ≧75% of Ph+ blasts. Sublethally irradiated (260 rads) 6-8 week-old NOD.Cg-Prkds^scid IL2rg^tm1WjI/SzJ (NSG, Jackson Laboratory) mice were intrafemorally injected with 1-3×10^6 CML or 10^5 UCB CD34^+ cells/mouse. The engraftment was assessed 8 weeks post-transplant by anti-human CD45 (BD Biosciences) and anti-mouse CD45.1 flow staining of intrafemoral BM aspirates and PB from tail vein. Wunderlich et al., Leukemia 24, 1785-1788 (2010). […] Disease evolution and effect of FTY720 on HSC-enriched cell fraction (CD45^+/CD34^+/CD38^−), primitive progenitors (CD45+/CD34+), myeloid (CD45^+/CD34^+/CD33^+), B-cell (CD45^+/CD19^+) and T-cell (CD45^+/CD3^+) compartments were determined before and after 4/8 weeks of FTY720 treatment by FACS-mediated analysis of BM aspirates and/or PB cells. BCR-ABL1 transcript levels were monitored by qRT-PCR-mediated (Ipsogen) analysis of BCR-ABL1/human Abl1 ratios in total RNA samples derived from BM-aspirates of CML-engrafted animals at time of engraftment (time 0) and after 8 weeks of FTY720 treatment. […]

BCR-ABL1^+ cells = experiment: Intracellular phosphorylation of FTY720; assay type: cell-based
[6] = test system: human CML CD34^+ BM cells in NSG mice; assay type: in vivo
Source text: Engraftment of Human Normal and CML Cells in Immnunodeficient NSG Mice and Effect of FTY720 on Leukemic and Normal Hematopoietic Stem/Progenitor Cells. CD34+ cells were isolated from BM of CML patients (n=3) or from umbilical cord blood specimens (UCB; n=3). Note that CML samples were from patients in blastic transformation with ≧75% of Ph+ blasts. Sublethally irradiated (260 rads) 6-8 week-old NOD.Cg-Prkds^scid IL2rg^tm1WjI/SzJ (NSG, Jackson Laboratory) mice were intrafemorally injected with 1-3×10^6 CML or 10^5 UCB CD34^+ cells/mouse. The engraftment was assessed 8 weeks post-transplant by anti-human CD45 (BD Biosciences) and anti-mouse CD45.1 flow staining of intrafemoral BM aspirates and PB from tail vein. Wunderlich et al., Leukemia 24, 1785-1788 (2010). CML- and UCB-engrafted NSG mice were treated for 8 weeks (8-10 mice/group) with either FTY720 (10 mg/kg/day; i.p.) or PBS. Disease evolution and effect of FTY720 on HSC-enriched cell fraction (CD45^+/CD34^+/CD38^−), primitive progenitors (CD45+/CD34+), myeloid (CD45^+/CD34^+/CD33^+), B-cell (CD45^+/CD19^+) and T-cell (CD45^+/CD3^+) compartments were determined before and after 4/8 weeks of FTY720 treatment by FACS-mediated analysis of BM aspirates and/or PB cells. BCR-ABL1 transcript levels were monitored by qRT-PCR-mediated (Ipsogen) analysis of BCR-ABL1/human Abl1 ratios in total RNA samples derived from BM-aspirates of CML-engrafted animals at time of engraftment (time 0) and after 8 weeks of FTY720 treatment. […] These studies were performed by IRB and IACUC approved protocols.
Fluorescent in situ hybridization (FISH). Human CD45+ cells from intrafemoral BM aspirates of untreated and 8 weeks FTY720-treated NSG mice engrafted with CD34+ CML-BC and UCB cells, were FACS-isolated, dropped onto microscope slides, and fixed in a solution of three parts methanol and one part acetic acid. A triple color, dual fusion BCR/ABL1 FISH probe was applied according to the manufacturer's instructions (Kreatech Diagnostics). Hybridized slides were counterstained with DAPI and visualized under an Olympus BX41 microscope. Images were captured using a Hammamatsu Orca II CCD camera and SmartCapture X software (Digital Scientific).

[7] = BM of NSG mice, 4 and 8 weeks FTY720 10 mg/kg/day i.p.

CCCCCCCCc1ccc(CCC(N)(CO)CO)cc1 [FTY720]
apoptosis of CD34^+ CML progenitors in combination with imatinib ([1]; CD34^+ CML progenitors n=10): synergizes with imatinib
apoptosis of quiescent/HSC-enriched CML cells ([1]; CFSE^max/CD34^+ or CD34^+/CD38^− CML cells): triggered apoptosis
PP2A activity in leukemic HSCs (PP2A): restored PP2A activity at levels superimposable to those observed in the identical cell fraction from healthy donors
reduction in replating efficiency (CD34+/CD38− CML cells): 70-90%
decrease in CFSE^max HSCs [2]: 70-90%
decrease in CFSE^max (quiescent) CML HSCs [3]: 60-75%
reduction in replating efficiency [4]: 70-90%
effect on human BM cell fractions [5]: did not exert noteworthy effects
numbers of circulating B-(CD19^+) and T-(CD3^+) cells [5]: reduced numbers
intracellular FTY720 remaining unphosphorylated (BCR-ABL1^+ cells): more than 90%
BCR-ABL1 transcripts (BCR-ABL1/hAbl1) ([6]; BM aspirates of FTY720-treated CML-engrafted mice): significant decrease
reduction in CD45^+/CD34^+ progenitors [6, 7]: ~85%
reduction in CD45^+/CD34^+/CD38^− HSCs [6, 7]: ~97%
reduction in total hCD45^+ cells [6, 7]: ~83%
Ph^+ hCD45^+/CD33^+ myeloid cells ([6]; CML-engrafted NSG mice): also reduced
adverse effects or changes in animal behavior ([6]; mouse, in vivo, ip, 10 mg/kg/day): have not been noted
